# Measured values as given in patent US11697648B2, “Fused pyrimidine pyridinone compounds as JAK inhibitors” (THERAVANCE BIOPHARMA R&D IP, LLC, priority 2019, dated 2023).
# Assays:
# [1] = system: IL-2 stimulated STAT5 phosphorylation in Tall-1 human T cell line (JAK3); assay: Cellular JAK3 potency assay: inhibition of IL-2 stimulated pSTAT5 in Tall-1 T cells; assay type: cell-based; settings: IL-2 stimulated pSTAT5, Tall-1 T cells
# Outline: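 AlphaLISA SureFire Ultra measures STAT5 Tyr694/699 phosphorylation in lysed Tall-1 human T cells. Cells were exposed to compound for 1 h at 37 °C before a 30 min IL-2 challenge (300 ng/ml final). Values are pIC50 means with standard deviation from signal-versus-concentration curves.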
# JAK2 = JAK2 (Homo sapiens (Human), UniProt O60674); assay: Biochemical JAK2 kinase assay (LanthaScreen)
# Outline: (§1)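 GST-JAK + GFP-STAT1 peptide, HEPES pH 7.5/MgCl2/EGTA/Brij-35 buffer; cpd preincubation 1 h RT; ATP start, 1 h RT; stop with 10 mM EDTA + 2 nM Tb-anti-pSTAT1; TR-FRET 520/495. 4-parameter IC50 → pKi (Cheng-Prusoff).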
# JAK3 = JAK3 (Homo sapiens (Human), UniProt P52333); assay: Biochemical JAK3 kinase assay (LanthaScreen); settings: for JAK3 (pKi)-JAK1 (pKi): selectivity JAK3 over JAK1, difference of pKi
# Outline: as §1
# Tyk2 = Tyk2 (Homo sapiens (Human), UniProt P29597); assay: Biochemical Tyk2 kinase assay (LanthaScreen)
# Outline: as §1
# [2] = Colon and plasma mouse pharmacokinetics; assay type: in vivo; settings: mouse, colon tissue / plasma; male Balb/c mice, 10 mg/kg PO; ratio of the colon AUC to the plasma AUC
# Outline: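 Male Balb/c mice given 10 mg/kg PO in 1% HPMC + 0.1% Tween-80; plasma, colon tissue and colon contents taken at 0.5, 2 and 6 h, quantified by LC/MS/MS. Non-compartmental analysis on means of 2 animals/time point; colon:plasma ratio taken as colon AUC over plasma AUC.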
# JAK1 = JAK1 (Homo sapiens (Human), UniProt P23458); assay: Biochemical JAK1 kinase assay (LanthaScreen)
# Outline: as §1
# Caco-2 cell monolayers = assay: Caco-2 permeation assay; assay type: in vitro ADME; settings: 5 μM, A-B direction, with Verapamil (25 μM)
# Outline: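 Passive A-to-B permeability with P-gp inhibited by verapamil (25 μM); compound at 5 μM, n=2. Both compartments sampled at t0 and t120 and quantified by LC-MS/MS, giving apparent permeability in cm/sec from flux, area and concentration.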
# Sequence of JAK3 (P52333 whole entry): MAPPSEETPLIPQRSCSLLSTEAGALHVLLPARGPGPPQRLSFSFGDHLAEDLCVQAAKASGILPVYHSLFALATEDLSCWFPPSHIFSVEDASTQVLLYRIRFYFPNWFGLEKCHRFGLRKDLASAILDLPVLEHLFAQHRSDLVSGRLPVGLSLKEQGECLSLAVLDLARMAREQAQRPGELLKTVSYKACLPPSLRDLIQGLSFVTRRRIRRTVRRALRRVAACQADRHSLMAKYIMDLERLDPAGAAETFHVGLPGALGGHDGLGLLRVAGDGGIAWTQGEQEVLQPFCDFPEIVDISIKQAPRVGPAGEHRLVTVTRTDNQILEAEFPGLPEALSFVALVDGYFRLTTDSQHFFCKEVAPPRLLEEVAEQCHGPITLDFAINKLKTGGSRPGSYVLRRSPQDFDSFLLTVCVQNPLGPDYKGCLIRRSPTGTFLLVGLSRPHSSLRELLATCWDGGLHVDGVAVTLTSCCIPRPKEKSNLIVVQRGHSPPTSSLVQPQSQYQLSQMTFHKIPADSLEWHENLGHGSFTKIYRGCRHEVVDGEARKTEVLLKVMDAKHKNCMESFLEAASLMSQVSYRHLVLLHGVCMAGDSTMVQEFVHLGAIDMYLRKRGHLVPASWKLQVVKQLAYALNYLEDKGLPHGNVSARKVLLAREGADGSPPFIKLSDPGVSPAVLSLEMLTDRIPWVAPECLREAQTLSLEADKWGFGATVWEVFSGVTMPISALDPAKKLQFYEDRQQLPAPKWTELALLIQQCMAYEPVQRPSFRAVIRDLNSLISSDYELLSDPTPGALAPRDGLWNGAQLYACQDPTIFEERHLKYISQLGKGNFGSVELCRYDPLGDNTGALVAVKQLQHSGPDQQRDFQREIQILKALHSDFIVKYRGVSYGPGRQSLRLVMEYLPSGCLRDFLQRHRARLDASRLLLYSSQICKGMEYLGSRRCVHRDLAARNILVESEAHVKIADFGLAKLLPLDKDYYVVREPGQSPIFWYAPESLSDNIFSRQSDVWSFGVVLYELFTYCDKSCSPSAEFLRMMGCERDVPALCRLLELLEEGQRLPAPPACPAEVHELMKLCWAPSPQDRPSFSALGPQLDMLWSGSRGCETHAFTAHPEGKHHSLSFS
# Sequence of Tyk2 (P29597 whole entry): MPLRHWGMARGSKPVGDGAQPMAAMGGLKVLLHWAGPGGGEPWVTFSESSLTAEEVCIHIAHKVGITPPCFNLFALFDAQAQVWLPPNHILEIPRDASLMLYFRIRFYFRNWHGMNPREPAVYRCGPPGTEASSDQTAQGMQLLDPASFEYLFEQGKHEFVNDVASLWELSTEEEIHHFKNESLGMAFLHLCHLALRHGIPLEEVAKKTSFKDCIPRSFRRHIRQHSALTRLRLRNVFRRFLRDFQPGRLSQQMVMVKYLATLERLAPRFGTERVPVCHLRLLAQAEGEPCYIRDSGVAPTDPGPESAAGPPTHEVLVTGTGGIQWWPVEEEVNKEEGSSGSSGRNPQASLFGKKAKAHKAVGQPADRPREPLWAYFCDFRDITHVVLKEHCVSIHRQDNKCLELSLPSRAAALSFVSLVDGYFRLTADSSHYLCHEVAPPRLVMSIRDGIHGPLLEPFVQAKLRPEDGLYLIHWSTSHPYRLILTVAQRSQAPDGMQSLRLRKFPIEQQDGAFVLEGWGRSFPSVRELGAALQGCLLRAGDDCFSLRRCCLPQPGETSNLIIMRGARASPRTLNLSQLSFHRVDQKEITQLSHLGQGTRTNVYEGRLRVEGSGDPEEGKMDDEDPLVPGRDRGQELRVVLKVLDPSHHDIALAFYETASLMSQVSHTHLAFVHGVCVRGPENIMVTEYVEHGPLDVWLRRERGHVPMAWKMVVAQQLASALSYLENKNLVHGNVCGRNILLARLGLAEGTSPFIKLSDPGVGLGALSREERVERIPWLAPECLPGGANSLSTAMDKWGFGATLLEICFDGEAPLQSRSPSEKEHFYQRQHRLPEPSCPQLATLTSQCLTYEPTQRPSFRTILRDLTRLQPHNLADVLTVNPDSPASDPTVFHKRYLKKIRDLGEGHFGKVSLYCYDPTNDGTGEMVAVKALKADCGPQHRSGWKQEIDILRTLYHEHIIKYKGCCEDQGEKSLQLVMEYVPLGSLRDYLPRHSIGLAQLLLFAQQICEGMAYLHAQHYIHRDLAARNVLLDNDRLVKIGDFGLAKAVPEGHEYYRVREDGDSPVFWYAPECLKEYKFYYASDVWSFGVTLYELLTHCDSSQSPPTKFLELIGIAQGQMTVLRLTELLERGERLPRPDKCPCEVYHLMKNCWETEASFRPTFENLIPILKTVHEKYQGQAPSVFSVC
# Sequence of JAK2 (O60674 whole entry): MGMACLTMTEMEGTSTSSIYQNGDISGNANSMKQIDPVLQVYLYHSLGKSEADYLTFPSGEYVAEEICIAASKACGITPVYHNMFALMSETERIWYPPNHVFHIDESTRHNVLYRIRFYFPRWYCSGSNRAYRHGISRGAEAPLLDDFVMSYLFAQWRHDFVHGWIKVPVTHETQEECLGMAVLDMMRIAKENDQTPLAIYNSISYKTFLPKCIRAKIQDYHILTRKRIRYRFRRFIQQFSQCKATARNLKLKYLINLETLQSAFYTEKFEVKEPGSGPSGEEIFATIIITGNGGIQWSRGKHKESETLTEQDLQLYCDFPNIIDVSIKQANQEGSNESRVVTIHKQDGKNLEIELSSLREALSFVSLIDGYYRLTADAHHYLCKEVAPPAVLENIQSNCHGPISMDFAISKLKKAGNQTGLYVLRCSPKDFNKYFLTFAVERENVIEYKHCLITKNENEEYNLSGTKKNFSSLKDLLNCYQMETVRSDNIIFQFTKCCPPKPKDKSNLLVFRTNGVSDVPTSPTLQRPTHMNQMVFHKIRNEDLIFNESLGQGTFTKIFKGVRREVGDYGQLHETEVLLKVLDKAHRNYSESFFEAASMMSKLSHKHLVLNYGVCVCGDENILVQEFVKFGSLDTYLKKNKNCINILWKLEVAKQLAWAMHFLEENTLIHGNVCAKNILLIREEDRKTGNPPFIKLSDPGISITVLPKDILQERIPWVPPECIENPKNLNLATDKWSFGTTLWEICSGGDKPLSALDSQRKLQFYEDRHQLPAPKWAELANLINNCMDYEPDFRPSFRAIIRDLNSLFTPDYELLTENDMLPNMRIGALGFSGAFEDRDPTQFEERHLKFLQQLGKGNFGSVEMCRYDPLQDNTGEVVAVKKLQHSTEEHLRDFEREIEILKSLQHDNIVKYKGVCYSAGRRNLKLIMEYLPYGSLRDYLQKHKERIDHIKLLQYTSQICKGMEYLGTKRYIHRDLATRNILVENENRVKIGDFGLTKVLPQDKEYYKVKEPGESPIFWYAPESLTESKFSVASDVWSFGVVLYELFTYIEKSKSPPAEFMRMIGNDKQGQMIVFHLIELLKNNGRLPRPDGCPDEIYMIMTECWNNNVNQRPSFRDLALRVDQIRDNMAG
# Sequence of JAK1 (P23458 whole entry): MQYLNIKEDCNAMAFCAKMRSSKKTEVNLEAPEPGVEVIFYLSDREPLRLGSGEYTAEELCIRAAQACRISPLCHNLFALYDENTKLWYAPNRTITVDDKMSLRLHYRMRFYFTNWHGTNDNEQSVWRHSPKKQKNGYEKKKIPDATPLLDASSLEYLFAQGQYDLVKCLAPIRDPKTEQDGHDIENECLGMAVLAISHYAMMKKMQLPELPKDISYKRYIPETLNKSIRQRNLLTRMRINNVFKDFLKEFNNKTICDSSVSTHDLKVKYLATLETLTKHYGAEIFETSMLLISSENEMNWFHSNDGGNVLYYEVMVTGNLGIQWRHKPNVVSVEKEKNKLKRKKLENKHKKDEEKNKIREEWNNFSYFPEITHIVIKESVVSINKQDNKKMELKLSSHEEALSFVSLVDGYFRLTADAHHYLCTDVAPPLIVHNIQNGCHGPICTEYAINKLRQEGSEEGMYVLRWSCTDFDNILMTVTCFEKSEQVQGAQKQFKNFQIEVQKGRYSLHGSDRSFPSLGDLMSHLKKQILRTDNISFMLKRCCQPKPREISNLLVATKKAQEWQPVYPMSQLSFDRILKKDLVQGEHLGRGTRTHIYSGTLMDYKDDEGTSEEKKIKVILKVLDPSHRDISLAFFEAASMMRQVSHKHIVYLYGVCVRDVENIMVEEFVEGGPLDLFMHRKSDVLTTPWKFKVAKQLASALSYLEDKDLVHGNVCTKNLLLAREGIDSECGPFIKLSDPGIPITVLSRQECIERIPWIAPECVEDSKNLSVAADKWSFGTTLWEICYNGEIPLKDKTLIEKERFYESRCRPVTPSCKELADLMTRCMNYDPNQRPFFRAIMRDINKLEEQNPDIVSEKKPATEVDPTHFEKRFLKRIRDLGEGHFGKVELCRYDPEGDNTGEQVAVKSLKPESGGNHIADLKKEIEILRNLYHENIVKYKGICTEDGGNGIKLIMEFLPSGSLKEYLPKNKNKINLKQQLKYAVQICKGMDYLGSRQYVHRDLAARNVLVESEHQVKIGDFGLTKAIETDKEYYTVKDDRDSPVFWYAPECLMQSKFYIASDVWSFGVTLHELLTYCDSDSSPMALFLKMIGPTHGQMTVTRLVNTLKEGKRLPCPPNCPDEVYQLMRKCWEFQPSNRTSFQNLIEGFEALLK
Compound,Tall-1 (pIC50) [1],JAK 2 (pKi) (JAK2),JAK 3 (pKi) (JAK3),JAK3 (pKi)-JAK1 (pKi) (JAK3),Tyk 2 (pKi) (Tyk2),Kp [2],JAK 1 (pKi) (JAK1),Caco Kp (Caco-2 cell monolayers)
C=CC(=O)N1CC(CCn2c(=O)ccc3cnc(Nc4cccc(CN5CCN(C(=O)CCSC)CC5)c4)nc32)C1 [Example 110],A (A represents a pIC50 value≥7.5 (IC50≤32 nM)),E (E represents a pKi value of 7 or below (Ki of 100 nM or above)),A (A represents a pKi value≥10 (Ki≤0.1 nM)),A (A represents a value of 3 or above),E (E represents a pKi value of 7 or below (Ki of 100 nM or above)),> 1000,E (E represents a pKi value of 7 or below (Ki of 100 nM or above)),B (B represents a value between 5×10^−6 and 10×10^−6 cm/sec)
C=CC(=O)N1CC(CCn2c(=O)ccc3cnc(Nc4cccc(CN5CCN(C(=O)COC)CC5)c4)nc32)C1 [Example 112],B (B represents a pC50 value between 6.7 (included) and 7.5 (IC50 between 200 nM and 32 nM)),E (E represents a pKi value of 7 or below (Ki of 100 nM or above)),A (A represents a pKi value≥10 (Ki≤0.1 nM)),A (A represents a value of 3 or above),E (E represents a pKi value of 7 or below (Ki of 100 nM or above)),> 100,E (E represents a pKi value of 7 or below (Ki of 100 nM or above)),A (A represents a value below 5×10^−6 cm/sec)
C=CC(=O)N1CC(CCn2c(=O)ccc3cnc(Nc4cccc(CN5CCN(C(C)=O)CC5)c4)nc32)C1 [Example 133],B (B represents a pC50 value between 6.7 (included) and 7.5 (IC50 between 200 nM and 32 nM)),E (E represents a pKi value of 7 or below (Ki of 100 nM or above)),A (A represents a pKi value≥10 (Ki≤0.1 nM)),A (A represents a value of 3 or above),E (E represents a pKi value of 7 or below (Ki of 100 nM or above)),> 100,E (E represents a pKi value of 7 or below (Ki of 100 nM or above)),A (A represents a value below 5×10^−6 cm/sec)
C=CC(=O)N1CC(CCn2c(=O)ccc3cnc(Nc4cccc(CN5CCN(C(=O)CSC)CC5)c4)nc32)C1 [Example 134],B (B represents a pC50 value between 6.7 (included) and 7.5 (IC50 between 200 nM and 32 nM)),E (E represents a pKi value of 7 or below (Ki of 100 nM or above)),A (A represents a pKi value≥10 (Ki≤0.1 nM)),A (A represents a value of 3 or above),E (E represents a pKi value of 7 or below (Ki of 100 nM or above)),> 100,E (E represents a pKi value of 7 or below (Ki of 100 nM or above)),A (A represents a value below 5×10^−6 cm/sec)
C=CC(=O)N1CCN(CCn2c(=O)ccc3cnc(Nc4ccc(N5CCN(C(=O)CSC)CC5)cc4)nc32)CC1 [Example 150],B (B represents a pC50 value between 6.7 (included) and 7.5 (IC50 between 200 nM and 32 nM)),E (E represents a pKi value of 7 or below (Ki of 100 nM or above)),A (A represents a pKi value≥10 (Ki≤0.1 nM)),A (A represents a value of 3 or above),E (E represents a pKi value of 7 or below (Ki of 100 nM or above)),> 100,E (E represents a pKi value of 7 or below (Ki of 100 nM or above)),A (A represents a value below 5×10^−6 cm/sec)
C=CC(=O)N1CCN(CCn2c(=O)ccc3cnc(Nc4ccc(N5CCN(C(C)=O)CC5)cc4)nc32)[C@@H](C)C1 [Example 155],B (B represents a pC50 value between 6.7 (included) and 7.5 (IC50 between 200 nM and 32 nM)),E (E represents a pKi value of 7 or below (Ki of 100 nM or above)),B (B represents pKi value between 9 and 10 (Ki between 1 nM and 0.1 nM)),A (A represents a value of 3 or above),E (E represents a pKi value of 7 or below (Ki of 100 nM or above)),> 1000,E (E represents a pKi value of 7 or below (Ki of 100 nM or above)),A (A represents a value below 5×10^−6 cm/sec)
C=CC(=O)N1CCN(CCn2c(=O)ccc3cnc(Nc4ccc(N5CCN(C(=O)CCSC)CC5)cc4)nc32)[C@@H](C)C1 [Example 171],A (A represents a pIC50 value≥7.5 (IC50≤32 nM)),E (E represents a pKi value of 7 or below (Ki of 100 nM or above)),A (A represents a pKi value≥10 (Ki≤0.1 nM)),A (A represents a value of 3 or above),E (E represents a pKi value of 7 or below (Ki of 100 nM or above)),> 1000,E (E represents a pKi value of 7 or below (Ki of 100 nM or above)),B (B represents a value between 5×10^−6 and 10×10^−6 cm/sec)
C=CC(=O)N1CCN(CCn2c(=O)ccc3cnc(Nc4ccc(N5CCN(C(=O)CSC)CC5)cc4)nc32)[C@@H](C)C1 [Example 173],B (B represents a pC50 value between 6.7 (included) and 7.5 (IC50 between 200 nM and 32 nM)),E (E represents a pKi value of 7 or below (Ki of 100 nM or above)),B (B represents pKi value between 9 and 10 (Ki between 1 nM and 0.1 nM)),A (A represents a value of 3 or above),E (E represents a pKi value of 7 or below (Ki of 100 nM or above)),> 100,E (E represents a pKi value of 7 or below (Ki of 100 nM or above)),A (A represents a value below 5×10^−6 cm/sec)
C=CC(=O)N1CCN(CCn2c(=O)ccc3cnc(Nc4ccc(N5CCN(C(=O)N(C)C)CC5)cc4)nc32)[C@@H](C)C1 [Example 174],B (B represents a pC50 value between 6.7 (included) and 7.5 (IC50 between 200 nM and 32 nM)),E (E represents a pKi value of 7 or below (Ki of 100 nM or above)),B (B represents pKi value between 9 and 10 (Ki between 1 nM and 0.1 nM)),A (A represents a value of 3 or above),E (E represents a pKi value of 7 or below (Ki of 100 nM or above)),> 14,E (E represents a pKi value of 7 or below (Ki of 100 nM or above)),B (B represents a value between 5×10^−6 and 10×10^−6 cm/sec)
C=CC(=O)N1CCN(CCn2c(=O)ccc3cnc(Nc4ccc(N5CCN(C(=O)COC)CC5)cc4)nc32)[C@@H](C)C1 [Example 175],B (B represents a pC50 value between 6.7 (included) and 7.5 (IC50 between 200 nM and 32 nM)),E (E represents a pKi value of 7 or below (Ki of 100 nM or above)),B (B represents pKi value between 9 and 10 (Ki between 1 nM and 0.1 nM)),A (A represents a value of 3 or above),E (E represents a pKi value of 7 or below (Ki of 100 nM or above)),> 100,E (E represents a pKi value of 7 or below (Ki of 100 nM or above)),A (A represents a value below 5×10^−6 cm/sec)
